Source: PubChem BioAssay AID1963869 (Molecular Pharmacology Branch, DTP, NCI, 2024)

System: KRAS patient-derived spheroids with HUVEC/MSC, viability
Experiment: Anticancer human tumor 323965-272-R-J2-PDC patient-derived pancreatic carcinoma cell line growth inhibition [KRAS2]
Conditions: for IC50: curve of first compound; for viability, T/C: stronger effect = lower value
Procedure, shortened: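 KRAS-mutant tumor cells were grown as spheroids with HUVEC endothelial cells and human MSCs as stroma. Targeted agents were tested alone and with KRAS pathway inhibitors. Doses started at or near clinical Cmax, or 10 microM, descending half-log.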

[1] = second compound 0.1 µM, first compound 0.0316 µM
[2] = second compound 0.1 µM, first compound 0.1 µM
[3] = second compound 0.1 µM, first compound 0.316 µM
[4] = second compound 0.1 µM, first compound 1 µM
[5] = second compound 0.1 µM, first compound 3.16 µM
[6] = second compound 0.1 µM, first compound 10 µM
[7] = second compound 0.316 µM, first compound 0.0316 µM
[8] = second compound 0.316 µM, first compound 0.1 µM
[9] = second compound 0.316 µM, first compound 0.316 µM
[10] = second compound 0.316 µM, first compound 1 µM
[11] = second compound 0.316 µM, first compound 3.16 µM
[12] = second compound 0.316 µM, first compound 10 µM
[13] = second compound 1 µM, first compound 0.0316 µM
[14] = second compound 1 µM, first compound 0.1 µM
[15] = second compound 1 µM, first compound 0.316 µM
[16] = second compound 1 µM, first compound 1 µM
[17] = second compound 1 µM, first compound 3.16 µM
[18] = second compound 1 µM, first compound 10 µM
[19] = second compound 3.16 µM, first compound 0.0316 µM
[20] = second compound 3.16 µM, first compound 0.1 µM
[21] = second compound 3.16 µM, first compound 0.316 µM
[22] = second compound 3.16 µM, first compound 1 µM
[23] = second compound 3.16 µM, first compound 3.16 µM
[24] = second compound 3.16 µM, first compound 10 µM
[25] = second compound 10 µM, first compound 0.0316 µM
[26] = second compound 10 µM, first compound 0.1 µM
[27] = second compound 10 µM, first compound 0.316 µM
[28] = second compound 10 µM, first compound 1 µM
[29] = second compound 10 µM, first compound 3.16 µM
[30] = second compound 10 µM, first compound 10 µM
[31] = second compound 0.1 µM, first compound 0.01 µM
[32] = second compound 0.316 µM, first compound 0.01 µM
[33] = second compound 1 µM, first compound 0.01 µM
[34] = second compound 3.16 µM, first compound 0.01 µM
[35] = second compound 10 µM, first compound 0.01 µM
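Further: spheroids exposed to agents for 7 days.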
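Wherever viability, T/C is given: 100% = DMSO vehicle control viability.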

SMILES | IC50 (second compound 0.1 µM) [nM] | IC50 (second compound 0.316 µM) [nM] | IC50 (second compound 1 µM) [nM] | IC50 (second compound 3.16 µM) [nM] | IC50 (second compound 10 µM) [nM] | viability, T/C [1] [%] | viability, T/C [2] [%] | viability, T/C [3] [%] | viability, T/C [4] [%] | viability, T/C [7] [%] | viability, T/C [8] [%] | viability, T/C [9] [%] | viability, T/C [10] [%] | viability, T/C [13] [%] | viability, T/C [14] [%] | viability, T/C [15] [%] | viability, T/C [16] [%] | viability, T/C [19] [%] | viability, T/C [20] [%] | viability, T/C [21] [%] | other results
CC(C)NCC(C(=O)N1CCN(c2ncnc3c2C(C)CC3O)CC1)c1ccc(Cl)cc1 (stereo not given) + C=CC(=O)N1CCN(c2nc(=O)n(-c3c(C)ccnc3C(C)C)c3nc(-c4c(O)cccc4F)c(F)cc23)C(C)C1 | 175 | 80.4 | 159 | 53.5 | < 31.6 | 62.4 | 56.3 | 43.5 | 32.4 | 56.8 | 49.2 | 40.2 | 33 | 61.2 | 55 | 42.3 | 29.8 | 52.1 | 47.3 | 37.8 | viability, T/C [5]: 27.1%; viability, T/C [6]: 23.8%; viability, T/C [11]: 26%; viability, T/C [12]: 22.6%; viability, T/C [17]: 26.4%; viability, T/C [18]: 27.7%; viability, T/C [22]: 28.3%; viability, T/C [23]: 26.9%; viability, T/C [24]: 27.4%; viability, T/C [25]: 42.8%; viability, T/C [26]: 49.7%; viability, T/C [27]: 30.5%; viability, T/C [28]: 21.5%; viability, T/C [29]: 22.9%; viability, T/C [30]: 18%
CC1COCCN1c1cc(-c2ccnn2C)c2ccnc(-c3ccn[nH]3)c2n1 (stereo not given) + C=CC(=O)N1CCN(c2nc(=O)n(-c3c(C)ccnc3C(C)C)c3nc(-c4c(O)cccc4F)c(F)cc23)C(C)C1 | 11.6 | < 10 | 11.9 | < 10 | < 10 | 28 | 18.7 | 13.7 | 13.8 | 28.8 | 18 | 14.4 | 16.1 | 28 | 18.9 | 14.5 | 14.1 | 22.8 | 15.5 | 14.1 | viability, T/C [31]: 53.6%; viability, T/C [5]: 11.8%; viability, T/C [32]: 44.2%; viability, T/C [11]: 12.6%; viability, T/C [33]: 54.1%; viability, T/C [17]: 13.5%; viability, T/C [34]: 40.6%; viability, T/C [22]: 13.3%; viability, T/C [23]: 12.8%; viability, T/C [35]: 20.9%; viability, T/C [25]: 17.4%; viability, T/C [26]: 16.8%; viability, T/C [27]: 13.2%; viability, T/C [28]: 13.4%; viability, T/C [29]: 13.2%
CCN1CCN(Cc2ccc(Nc3ncc(F)c(-c4cc(F)c5nc(C)n(C(C)C)c5c4)n3)nc2)CC1 + C=CC(=O)N1CCN(c2nc(=O)n(-c3c(C)ccnc3C(C)C)c3nc(-c4c(O)cccc4F)c(F)cc23)C(C)C1 | 8.91 | 6.62 | 11.7 | 6.49 | < 3.16 | 39.8 | 37.5 | 37.1 | 43.1 | 38.7 | 29.6 | 33.5 | 43.8 | 36.4 | 35.5 | 31.6 | 48.8 | 38.1 | 39.5 | 33.4 | viability, T/C (second compound 0.1 µM, first compound 0.00316 µM): 57.6%; viability, T/C [31]: 54.7%; viability, T/C (second compound 0.316 µM, first compound 0.00316 µM): 59.8%; viability, T/C [32]: 46.5%; viability, T/C (second compound 1 µM, first compound 0.00316 µM): 51%; viability, T/C [33]: 52.8%; viability, T/C (second compound 3.16 µM, first compound 0.00316 µM): 56.6%; viability, T/C [34]: 49.1%; viability, T/C [22]: 51.5%; viability, T/C (second compound 10 µM, first compound 0.00316 µM): 38.6%; viability, T/C [35]: 52.2%; viability, T/C [25]: 37.6%; viability, T/C [26]: 36.5%; viability, T/C [27]: 37.1%; viability, T/C [28]: 45.4%
CCNC(=O)CC1N=C(c2ccc(Cl)cc2)c2cc(OC)ccc2-n2c(C)nnc21 (stereo not given) + C=CC(=O)N1CCN(c2nc(=O)n(-c3c(C)ccnc3C(C)C)c3nc(-c4c(O)cccc4F)c(F)cc23)C(C)C1 | 116 | 135 | 51.8 | 111 | < 31.6 | 54.6 | 52.5 | 35.9 | 30.9 | 51.5 | 55.5 | 40 | 31 | 51.3 | 49.2 | 40 | 32.5 | 57.1 | 51.9 | 35.5 | viability, T/C [5]: 30%; viability, T/C [6]: 25.6%; viability, T/C [11]: 28.6%; viability, T/C [12]: 25.7%; viability, T/C [17]: 27.6%; viability, T/C [18]: 30.1%; viability, T/C [22]: 33.6%; viability, T/C [23]: 28.3%; viability, T/C [24]: 28.3%; viability, T/C [25]: 46.4%; viability, T/C [26]: 38.4%; viability, T/C [27]: 27.7%; viability, T/C [28]: 24.9%; viability, T/C [29]: 20.1%; viability, T/C [30]: 18.5%
